Experiment [1] concerns GluN1-GluN2A receptors. To be noted: channel blocker; ref Wang et al., 2021; cited from earlier work.
Experiment [2] deals with T1, GluN1-GluN2B (Rattus norvegicus, UniProt P35439+Q00960).
T1 construct: GFP (N); expressed in transfected cells; host or cells: HEK-293T
Type of experiment: cell-based.

Experiment [3] concerns NMDARs. On the set-up: method as in 3 sources, one per row (each row's own in cited_ref): ref Johnson and Ascher, 1987 ||| ref Chopra et al., 2015 ||| ref Lerma, 1992. To be noted: cited from earlier work.
The test system of experiment [4] is GluN1-GluN2B^ΔNTD. In words: whole-cell patch clamp, ifenprodil inhibition of NTD-deleted GluN1-GluN2B. The class given is cell-based. To be noted: 10 µM ifenprodil co-applied with agonists; HEK-293. Background: The patch-clamp technique gives a direct electrical read-out from membranes.
Experiment [5] deals with triheteromeric NMDARs (GluN1, GluN2A, GluN2B). Conditions: cited from earlier work.
In experiment [6] the test system is synaptic NMDARs, cultured hippocampal neurons. The class given is cell-based, rat.
The subject of experiment [7] is GluN2B-containing di-heteromers. To be noted: ref Kellner and Berlin, 2024; cited from earlier work.

No end group written: not given here.

T1 sequence (Q00960 27-1482, other chains not shown): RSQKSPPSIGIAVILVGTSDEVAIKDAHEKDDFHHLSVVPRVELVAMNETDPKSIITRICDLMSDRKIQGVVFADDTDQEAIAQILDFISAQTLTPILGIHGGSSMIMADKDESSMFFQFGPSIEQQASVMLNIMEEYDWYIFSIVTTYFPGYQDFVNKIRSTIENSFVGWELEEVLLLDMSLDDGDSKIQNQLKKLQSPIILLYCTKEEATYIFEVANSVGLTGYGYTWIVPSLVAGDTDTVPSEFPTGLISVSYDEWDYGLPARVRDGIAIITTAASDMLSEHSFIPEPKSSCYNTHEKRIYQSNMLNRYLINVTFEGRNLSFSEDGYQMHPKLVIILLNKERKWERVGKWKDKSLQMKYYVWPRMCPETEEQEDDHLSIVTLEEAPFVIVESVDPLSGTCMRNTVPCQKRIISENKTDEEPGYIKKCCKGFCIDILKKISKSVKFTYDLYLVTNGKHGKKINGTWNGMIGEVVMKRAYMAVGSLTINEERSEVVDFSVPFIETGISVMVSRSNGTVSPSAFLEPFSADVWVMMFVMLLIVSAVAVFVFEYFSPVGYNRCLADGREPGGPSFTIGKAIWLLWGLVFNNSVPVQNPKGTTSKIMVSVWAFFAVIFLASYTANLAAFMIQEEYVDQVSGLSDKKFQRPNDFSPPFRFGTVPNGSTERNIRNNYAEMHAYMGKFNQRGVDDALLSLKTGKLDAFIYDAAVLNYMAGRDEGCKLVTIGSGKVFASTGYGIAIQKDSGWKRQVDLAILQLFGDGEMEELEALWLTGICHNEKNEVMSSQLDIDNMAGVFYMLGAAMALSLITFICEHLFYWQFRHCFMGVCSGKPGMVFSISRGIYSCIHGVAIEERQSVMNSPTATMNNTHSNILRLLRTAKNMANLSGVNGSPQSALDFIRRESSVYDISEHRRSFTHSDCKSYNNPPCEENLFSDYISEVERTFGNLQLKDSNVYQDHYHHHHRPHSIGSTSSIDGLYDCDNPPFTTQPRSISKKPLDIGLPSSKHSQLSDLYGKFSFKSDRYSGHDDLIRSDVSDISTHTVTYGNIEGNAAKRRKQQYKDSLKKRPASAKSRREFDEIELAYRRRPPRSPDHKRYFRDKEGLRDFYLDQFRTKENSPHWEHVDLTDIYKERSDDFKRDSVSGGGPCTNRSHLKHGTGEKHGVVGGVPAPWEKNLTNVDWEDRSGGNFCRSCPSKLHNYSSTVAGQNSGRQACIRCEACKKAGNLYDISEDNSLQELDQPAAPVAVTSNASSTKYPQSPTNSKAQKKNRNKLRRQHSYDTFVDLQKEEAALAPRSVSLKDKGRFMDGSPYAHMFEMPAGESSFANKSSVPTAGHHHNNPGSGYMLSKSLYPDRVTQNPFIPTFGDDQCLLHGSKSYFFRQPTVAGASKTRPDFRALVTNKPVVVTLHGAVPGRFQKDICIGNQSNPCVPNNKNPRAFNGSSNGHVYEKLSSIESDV

In the case of `Nc1c2ccccc2nc2ccccc12` [9-aminoacridine], the current following removal result in experiment [1] is “a transient inward current”. In the case of `N[C@@H](CCC(=O)O)C(=O)O` [glutamate, L-glutamate, reference compound], the “response to glutamate alone” value in experiment [2] is on record as “generated a significant current response”. The “activation by glutamate alone” value in experiment [3] (ref Johnson and Ascher, 1987) is listed as “slightly activate the channel”. As to `CC(C(O)c1ccc(O)cc1)N1CCC(Cc2ccccc2)CC1` (stereo not shown) [ifenprodil], in experiment [4], the “inhibition of agonist-evoked current” value was “no inhibitory effect was observed”. As for `CC12CC3CC(C)(C1)CC(N)(C3)C2` [memantine], the “affinity for triheteromeric NMDARs” value in experiment [5] (compared to NMDARs containing only GluN2B, ref Chen et al., 2020) is “lower affinity for triheteromeric NMDARs”. Besides, in experiment [6], the “effect on EPSCs” value is given as “abolished”. In the case of `NCCCNCCCCNCCCN` [spermine], the “enhancement of triheteromeric NMDARs” value in experiment [5] (ref Kellner and Berlin, 2024) is on record as “fails to enhance triheteromeric NMDARs”. The “potentiation of GluN2B-containing di-heteromers” value in experiment [7] is “strongly potentiates GluN2B-containing di-heteromers”. As to “Con-G: marine cone snail toxin, NMDAR antagonist targeting the GluN2B ligand binding domain (GEEELQENQELIREKSN; not fully specified (residues 3, 4, 7, 10, 14, C-terminus); ends and bridges not checked; UniProt P07231 81-97, looked up)”, the NMDAR activity result in experiment [3] is on record as “NMDAR antagonist”.

In the case of pregnenolone sulfate, in experiment [3], the “tail-like response on removal of modulator” value is on record as “tail-like response”.

The values above are taken from paper PMC12678337, “EAR-20 peptide, a novel NMDA receptor positive allosteric modulator” (Frontiers in Pharmacology, 2025).
